How the values were obtained:
Assay type in all cases: in vivo
[1] = Anxiolytic activity by the four-plates test; settings: mice; for change in vivo at 5 mg/kg: 5 mg.kg^-1
Protocol: The anxiolytic activity of the compounds of the general formula I was investigated in mice according to the method of Aron Simon Larousse and Boissier described in Neuropharmacology (1971) 10 p. 459-469). After treatment of the animals by means of different doses of the compounds of the invention administered intraperitoneally or orally, the increase in the percentage of transitions during the exploration of the base of the test cage, in the presence of electric shocks, was assessed.

[2] = Anxiolytic activity by MacMillan's conflict test; settings: rats, i.p., 2,5 mg.kg^-1, vs physiological saline
Description: In these conditioning experiments which operate in the presence of a food reward, performed in rats according to the method described by MacMillan in Fed. Proceedings, 1975, 34, (9), p. 1870-1879, two parameters in the animal's behavioral responses are considered. The first parameter is the variation in the level of punished responses, in the presence of an electric shock, under the influence of the treatment in comparison with the level of punished responses under the influence of physiological saline. The second parameter is the variation in the level of unpunished responses, without an electric shock, under the influence of the same treatment, in comparison with the level of unpunished responses when physiological saline is administered. A specific anxiolytic effect is established when, after the administration of a substance, the level of only the punished responses is increased.

[3] = Inhibition of aggression in isolated and bulbectomized rats
Protocol: The inhibition of aggression was assessed according to the method described by Vergnes and Karli in C.R. Soc. Biol. 1963, 157, p. 1061. The effect on the aggression is assessed in terms of the percentage of animals which became non-killers after treatment.

[4] = Inhibition of isolation-induced aggression in mice; settings: Mus musculus, ip, read-out: Inhibitory ED50 (effective dose inhibiting 50% of the aggressive animals)
Description: The compounds of general formula I inhibit the attacking behavior of mice rendered aggressive by isolation according to the method described by Yen, Stanger and Millman in Arch. Int. Pharmacodyn. 1959, 123, p. 179-185.

[5] = Anxiolytic activity by the Geller-Seifter test; settings: rats, i.p., p<0.05
Protocol: The anxiolytic activity of the compounds of the present invention was also assessed in rats with the Geller-Seifter test described by Geller, Kulac and Seifter in Psychopharmacologia, 1962, 3, p. 374-375.
An increase related exclusively to the levels of the punished responses determines the existence of an authentic anxiolytic effect.

[6] = Anxiolytic activity by the "staircase" test; design: key to % variation in the steps climbed: NS: not significant; settings: rats
Description: The anxiolytic activity of the compounds of the invention was investigated in rats according to the method described by Thiebot, Soubrie and Boissier in J. Pharmacol. 1976, 7, (1), p. 87-102. In this test, behavior involving rearing movements is associated with a state of distress of the animal. The number of steps climbed represents the normal exploratory behavior of the rat introduced into the enclosure. Normally, an efficacious anxiolytic compound should decrease, during the test which lasts 3 minutes, the number of rearing movements without modifying the number of steps climbed, or on the contrary should increase this latter parameter.

[7] = Inhibition of the active conditioned avoidance response in rats; settings: i.p.
Description: The results obtained with the compounds of general formula I during the various experiments employing the method described by Courvoisier et al. in Arch. Int. Pharmacodyn., 1953, 92, p. 305-361 and by Janssen et al. in Arzneim, Forsch, 1965, 15, p.

[8] = Mus musculus, ip, i.p., read-out: % increase in the responses (transitions)

O=C1CN(Cc2ccccc2F)CC(=O)N1CCCN1CCN(c2cccc(C(F)(F)F)c2)CC1 [Example 1, 4-(2-Fluorobenzyl)-1-{3-[1-(3-trifluoromethylphenyl)-4-piperazinyl]propyl}-2,6-piperazinedione dimandelate]
change in vivo at 5 mg/kg [1, 8]: 65%
% increase in the responses ([1]; p.o., 50 mg.kg^-1): 64%
% variation in the unpunished responses ([2]; NS (not significant)): +18%
% variation in the punished responses ([2]; S (significant)): +49%
% of non-killer animals ([3]; i.p., 25 mg.kg^-1): 45%
ED50 [4]: 7.64 mg/kg
increase in the punished responses ([5]; 2.5 mg.kg^-1): 39%
% variation in the rearing movements ([6]; i.p., 10 mg.kg^-1): -39%
% variation in the steps climbed ([6]; i.p., 10 mg.kg^-1): NS
% variation in the rearing movements ([6]; i.p., 20 mg.kg^-1): -64%
% variation in the steps climbed ([6]; i.p., 20 mg.kg^-1): NS
% variation in the rearing movements ([6]; i.p., 2,5 mg.kg^-1): -20%
% variation in the steps climbed ([6]; i.p., 2,5 mg.kg^-1): NS

O=C1CN(Cc2ccccc2F)CC(=O)N1CCCN1CCN(c2cccc(Cl)c2)CC1 [Example 2, 4-(2-Fluorobenzyl)-1-{3-8 1-(3-chlorophenyl)-4-piperazinyl]propyl}-2,6-piperazinedione dimandelate]
increase in the punished responses ([5]; 5.0 mg.kg^-1): 65%

Cc1ccccc1N1CCN(CCCN2C(=O)CN(Cc3ccccn3)CC2=O)CC1.Cl.Cl.Cl [Example 19, 4-(2-Pyridylmethyl)-1-{3-[1-(2-methylphenyl)-4-piperazinyl]propyl}-2,6-piperazinedione trihydrochloride]
ED50 [4]: 6.78 mg/kg
% ICAR (percentage inhibition of the conditioned avoidance response) ([7]; 20 mg.kg^-1): 26%
% ICAR (percentage inhibition of the conditioned avoidance response) ([7]; 40 mg.kg^-1): 73%

O=C1CN(Cc2ccccc2)CC(=O)N1CCCN1CCN(c2ccc(F)cc2)CC1 [Example 9, 4-Benzyl-1-{3-[1-(4-fluorophenyl)-4-piperazinyl]propyl}-2,6-piperazinedioneoxalate]
% of non-killer animals ([3]; i.p., 25 mg.kg^-1): 60%
ED50 [4]: 8.6 mg/kg

COc1ccccc1CN1CC(=O)N(CCCCN2CCN(c3cccc(C(F)(F)F)c3)CC2)C(=O)C1.Cl.Cl [Example 6, 4-(2-Methoxybenzyl)-1-{4-[1-(3-trifluoromethylphenyl)-4-piperazinyl]butyl}-2,6-piperazinedione dihydrochloride]
change in vivo at 25 mg/kg ([1]; Mus musculus, ip, i.p., 25 mg.kg^-1, read-out: % increase in the responses (transitions)): 37%
ED50 [4]: 4.74 mg/kg

O=C(O)C(=O)O.O=C(O)C(=O)O.O=C1CN(Cc2ccccn2)CC(=O)N1CCCN1CCN(c2cccc(C(F)(F)F)c2)CC1 [Example 21, 4-(2-Pyridylmethyl)-1-{3-[1-(3-trifluoromethylphenyl)-4-piperazinyl]propyl}-2,6-piperazinedione dioxalate]
change in vivo at 5 mg/kg [1, 8]: 69%
% of non-killer animals ([3]; i.p., 12,5 mg.kg^-1): 73%
ED50 [4]: 11.1 mg/kg
